The target of experiment [1] is T1, HLA-A*0301 (Homo sapiens, UniProt P04439).
T1 construct: B-cell lines used are: CAA (A*0101), EKR (A*0301), BVR (A*1101), VIJF (A*2401); endogenous in cells; host or cells: B-cell line EKR
Description: Stability of peptide-HLA complex, binding at 4° C. and 20° C., HLA-A*0301. The note with it: for HLA binding Stability (Table 5): HLA type A3; for Peptide Binding Stability: HLA-A*0301, IC50 at 20° C. vs 4° C. The protocol: (§1) Stability of other peptide-HLA complexes was preferably determined as follows. […] Peptides of >50% of the initial complexes was lost within 2 hours were considered unstable. […] The rest was designated as unstable peptide binding.
(§2) Peptides 8-11 residues in length were selected based on typical anchor residues for HLA-A*0101, A*0301, A*1101 and HLA-A*2401 (Rammensee H G et al). The capacity of peptides to bind was tested in a competition based cellular binding assay as previously described (van der Burg S H et al 1995). FL-labeled reference peptides were synthesized as Cys-derivative (van der Burg S H et al 1995). Fluorescence labeled reference peptides used were: YLEPAC(FL)AK (SEQ ID NO: 87) (HLA-A*0101) and KVFPC(FL)ALINK (SEQ ID NO: 88) (HLA-A*1101) (Sette A et al), KVFPC(FL)ALINK (SEQ ID NO: 89) (HLAA*0301) (van der Burg S H et al 1995) and RYLKC(FL)QQLL (SEQ ID NO: 90) (A*2401) (Dai L C et al). B-cell lines used are: CAA (A*0101), EKR (A*0301), BVR (A*1101), VIJF (A*2401). The relative binding capacity of the peptides is expressed as the peptide concentration to inhibit 50% (1050) of the binding of the reference peptide. […] Peptide stabilization for HLA-A*0201 was performed as previously described (van der Burg S H et al, 1996). Peptides of >50% of the initial complexes was lost within 2 hours were considered unstable. Stability of other peptide-HLA complexes was determined as follows. Peptide binding was performed at 4° C. and 20° C. and 1050 were determined. […] The rest was designated as unstable peptide binding.

For experiment [2], the target named is T1, HLA-A*0301. Description: Competition based cellular binding assay, HLA-A*0301 (B-cell line EKR). Conditions: for HLA binding Affinity (Table 5): HLA type A3; for IC50: read-out: Peptide Binding Affinity.
The next experiment addresses T2, HLA-A*1101 (Homo sapiens, UniProt P04439, A114D/D185E/E176A/F33Y/L180Q/S129P/T187R).
T2 construct: B-cell lines used are: CAA (A*0101), EKR (A*0301), BVR (A*1101), VIJF (A*2401); endogenous in cells; host or cells: B-cell line BVR
Nature of the experiment: Stability of peptide-HLA complex, binding at 4° C. and 20° C., HLA-A*1101. Conditions: for HLA binding Stability (Table 5): HLA type A11; for Peptide Binding Stability: HLA-A*1101, IC50 at 20° C. vs 4° C. The protocol:
as §1, §2

Where no end group is shown, it is not given here.

With GGSRAHSSHLK [p53 360-370], at HLA-A*0301 [1], the “HLA binding Stability (Table 5)” value is given as “− (The rest was designated as unstable peptide binding.)” and the “Peptide Binding Stability” value is listed as “− (The rest was designated as unstable peptide binding.)”. For the same compound, the “HLA binding Affinity (Table 5)” value at HLA-A*0301 [2] was “int”. The IC50 at HLA-A*0301 [2] (HLA-A*0301, IC50 category) lay within 5 to 15 µM.

As for GSRAHSSHLK [p53 361-370], on HLA-A*0301 [1], the “HLA binding Stability (Table 5)” value is “+ (Stable peptides displayed IC50 at 20 °C that deviated <2 times of the IC50 at 4° C.)” and the “Peptide Binding Stability” value is “+ (Stable peptides displayed IC50 at 20 °C that deviated <2 times of the IC50 at 4° C.)”. At HLA-A*0301 [2], the “HLA binding Affinity (Table 5)” value was “high”. In addition, the “Peptide Binding Affinity” value on HLA-A*0301 [2] (HLA-A*0301, IC50 category) is given as “high”.

In the case of RAHSSHLKSK [p53 363-372], at HLA-A*0301 [1], the “HLA binding Stability (Table 5)” value was “− (The rest was designated as unstable peptide binding.)” and the “Peptide Binding Stability” value is “+/− (Peptides that displayed IC50 at 20 °C of more than twice the IC50 at 4 °C but IC50 < 15 μM were considered to bind with intermediate stability.)”. Besides, on HLA-A*0301 [2], the “HLA binding Affinity (Table 5)” value is “int”. The IC50 on HLA-A*0301 [2] (HLA-A*0301, IC50 category) is 5 to 15 µM.

On to RVRAMAIY [p53 156-163], for which, on HLA-A*0301 [1], the “HLA binding Stability (Table 5)” value was “− (The rest was designated as unstable peptide binding.)” and the “Peptide Binding Stability” value is recorded as “− (The rest was designated as unstable peptide binding.)”. Further, on HLA-A*0301 [2], the “HLA binding Affinity (Table 5)” value was “int”. Moreover, the IC50 on HLA-A*0301 [2] (HLA-A*0301, IC50 category) is 5 to 15 µM.

Turning to `CC(C)C[C@H](NC(=O)[C@H](C)NC(=O)[C@@H]1CCCN1C(=O)[C@H](CO)NC(=O)[C@H](Cc1ccc(O)cc1)NC(=O)[C@@H](NC(=O)[C@H](CS)NC(=O)[C@@H](NC(=O)[C@@H](N)C(C)C)[C@@H](C)O)[C@@H](C)O)C(=O)N[C@@H](CC(N)=O)C(=O)N[C@@H](CCCCN)C(=O)O` [p53 122-132], the “Peptide Binding Stability” value on HLA-A*0301 [1] was “+ (Stable peptides displayed IC50 at 20 °C that deviated <2 times of the IC50 at 4° C.)”. Besides, the IC50 on HLA-A*0301 [2] (HLA-A*0301, IC50 category) was in the range of 5 to 15 µM.

In the case of `CC(C)C[C@H](NC(=O)[C@H](Cc1c[nH]cn1)NC(=O)[C@H](CO)NC(=O)[C@H](CO)NC(=O)[C@H](Cc1c[nH]cn1)NC(=O)[C@H](C)NC(=O)[C@@H](N)CCCNC(=N)N)C(=O)N[C@@H](CCCCN)C(=O)N[C@@H](CO)C(=O)N[C@@H](CCCCN)C(=O)N[C@@H](CCCCN)C(=O)O` [p53 363-373], on HLA-A*0301 [1], the “HLA binding Stability (Table 5)” value is “+ (Stable peptides displayed IC50 at 20 °C that deviated <2 times of the IC50 at 4° C.)” and the “Peptide Binding Stability” value was “+ (Stable peptides displayed IC50 at 20 °C that deviated <2 times of the IC50 at 4° C.)”.

Take `C[C@@H](O)[C@H](NC(=O)[C@@H](N)CCCCN)C(=O)N[C@@H](Cc1ccc(O)cc1)C(=O)N[C@@H](CCC(N)=O)C(=O)NCC(=O)N[C@@H](CO)C(=O)N[C@@H](Cc1ccc(O)cc1)C(=O)NCC(=O)N[C@@H](Cc1ccccc1)C(=O)N[C@@H](CCCNC(=N)N)C(=O)O` [p53 101-110]: at HLA-A*1101, the “HLA binding Stability (Table 5)” value is “+/− (Peptides that displayed IC50 at 20 °C of more than twice the IC50 at 4 °C but IC50 < 15 μM were considered to bind with intermediate stability.)” and the “Peptide Binding Stability” value was “+/− (Peptides that displayed IC50 at 20 °C of more than twice the IC50 at 4 °C but IC50 < 15 μM were considered to bind with intermediate stability.)”. At HLA-A*0301 [1], the “HLA binding Stability (Table 5)” value is “+/− (Peptides that displayed IC50 at 20 °C of more than twice the IC50 at 4 °C but IC50 < 15 μM were considered to bind with intermediate stability.)” and the “Peptide Binding Stability” value was “+/− (Peptides that displayed IC50 at 20 °C of more than twice the IC50 at 4 °C but IC50 < 15 μM were considered to bind with intermediate stability.)”.

`CC[C@H](C)[C@H](NC(=O)[C@H](C)NC(=O)[C@H](CCSC)NC(=O)[C@H](C)NC(=O)[C@H](CCCNC(=N)N)NC(=O)[C@@H](NC(=O)[C@H](CCCNC(=N)N)NC(=O)[C@@H](NC(=O)CN)[C@@H](C)O)C(C)C)C(=O)N[C@@H](Cc1ccc(O)cc1)C(=O)N[C@@H](CCCCN)C(=O)O` [p53 154-164]: on HLA-A*0301 [1], the “HLA binding Stability (Table 5)” value was “+ (Stable peptides displayed IC50 at 20 °C that deviated <2 times of the IC50 at 4° C.)” and the “Peptide Binding Stability” value was “+ (Stable peptides displayed IC50 at 20 °C that deviated <2 times of the IC50 at 4° C.)”.

As for `CSCC[C@H](NC(=O)[C@H](CC(C)C)NC(=O)[C@H](CCCCN)NC(=O)[C@H](CCCCN)NC(=O)[C@H](Cc1c[nH]cn1)NC(=O)[C@H](CCCNC(=N)N)NC(=O)[C@H](CO)NC(=O)[C@@H](NC(=O)[C@@H](N)CO)[C@@H](C)O)C(=O)N[C@@H](Cc1ccccc1)C(=O)N[C@@H](CCCCN)C(=O)O` [p53 376-386], at HLA-A*0301 [1], the “HLA binding Stability (Table 5)” value was “− (The rest was designated as unstable peptide binding.)” and the “Peptide Binding Stability” value is “+/− (Peptides that displayed IC50 at 20 °C of more than twice the IC50 at 4 °C but IC50 < 15 μM were considered to bind with intermediate stability.)”.

`CC(C)C[C@H](NC(=O)[C@H](C)NC(=O)[C@@H]1CCCN1C(=O)[C@H](CO)NC(=O)[C@H](Cc1ccc(O)cc1)NC(=O)[C@@H](NC(=O)[C@@H](N)CS)[C@@H](C)O)C(=O)N[C@@H](CC(N)=O)C(=O)N[C@@H](CCCCN)C(=O)O` [p53 124-132]: the “Peptide Binding Stability” value on HLA-A*1101 and at HLA-A*0301 [1] was “+ (Stable peptides displayed IC50 at 20 °C that deviated <2 times of the IC50 at 4° C.)” throughout.

As for `CC[C@H](C)[C@H](NC(=O)[C@H](C)NC(=O)[C@H](CCSC)NC(=O)[C@H](C)NC(=O)[C@H](CCCNC(=N)N)NC(=O)[C@@H](NC(=O)[C@@H](N)CCCNC(=N)N)C(C)C)C(=O)N[C@@H](Cc1ccc(O)cc1)C(=O)N[C@@H](CCCCN)C(=O)O` [p53 156-164], on HLA-A*1101, the “HLA binding Stability (Table 5)” value was “+ (Stable peptides displayed IC50 at 20 °C that deviated <2 times of the IC50 at 4° C.)” and the “Peptide Binding Stability” value is “+ (Stable peptides displayed IC50 at 20 °C that deviated <2 times of the IC50 at 4° C.)”. Also, on HLA-A*0301 [1], the “HLA binding Stability (Table 5)” value is “+ (Stable peptides displayed IC50 at 20 °C that deviated <2 times of the IC50 at 4° C.)” and the “Peptide Binding Stability” value was “+ (Stable peptides displayed IC50 at 20 °C that deviated <2 times of the IC50 at 4° C.)”.

Consider `CC(C)[C@H](N)C(=O)N[C@H](C(=O)N[C@@H](CCCNC(=N)N)C(=O)N[C@@H](CCCNC(=N)N)C(=O)N[C@@H](CS)C(=O)N1CCC[C@H]1C(=O)N[C@@H](Cc1c[nH]cn1)C(=O)N[C@@H](Cc1c[nH]cn1)C(=O)N[C@@H](CCC(=O)O)C(=O)N[C@@H](CCCNC(=N)N)C(=O)O)C(C)C` [p53 172-181], for which, on HLA-A*0301 [1], the “HLA binding Stability (Table 5)” value was “+ (Stable peptides displayed IC50 at 20 °C that deviated <2 times of the IC50 at 4° C.)” and the “Peptide Binding Stability” value is “+ (Stable peptides displayed IC50 at 20 °C that deviated <2 times of the IC50 at 4° C.)”.

Consider `CC[C@H](C)[C@H](NC(=O)[C@H](C)NC(=O)[C@H](CCSC)NC(=O)[C@H](C)NC(=O)[C@H](CCCNC(=N)N)NC(=O)[C@@H](NC(=O)[C@H](CCCNC(=N)N)NC(=O)[C@@H](NC(=O)CN)[C@@H](C)O)C(C)C)C(=O)N[C@@H](Cc1ccc(O)cc1)C(=O)O` [p53 154-163], for which, on HLA-A*0301 [1], the “HLA binding Stability (Table 5)” value is “− (The rest was designated as unstable peptide binding.)” and the “Peptide Binding Stability” value was “− (The rest was designated as unstable peptide binding.)”.

For the origin of these results see patent US8663646B2, “P53 peptide vaccine” (priority 2007, dated 2014).
